Molecules are shown by their SMILES. “Also recorded” adds a separate entry of the source.

Series [1] deals with T1, mushroom tyrosinase (EC 1.14.18.1).
T1 construct: 22 U of mushroom tyrosinase (EC 1.14.18.1)
Nature of the series: Tyrosinase inhibition assay and kinetics (o-diphenolase activity, L-DOPA substrate). Type of series: biochemical, Agaricus bisporus (mushroom). Conditions: for Type of inhibition: Lineweaver-Burk and Dixon plots. The protocol: The assay mixture contained sodium phosphate buffer (50 mM; pH 6.8), 22 U of mushroom tyrosinase (EC 1.14.18.1; Sigma Chemical Co., St. Louis, USA), L-DOPA substrate (1 mM), and Compound 2 dissolved in DMSO. The final concentration of DMSO in the assay mixture was 0.5%. The o-diphenolase inhibitory activity of Compound 2 was first screened at a final concentration of 30 μM using Ultrospec 2100 pro spectrophotometer (Amersham Biosciences, UK).
The kinetic assays included a range of substrate (0.25-2.0 mM) and Compound 2 concentrations (0.25, 0.5, 1.0, 2.0 μM). The […] was first incubated with the […] for 15 min. at 25° C. followed by addition of substrate. The reaction was continuously monitored in the spectrophotometer and the enzyme velocity was measured from the linear portion of the curve (7). The kinetics data were analyzed by Grafit 7.0.3 software (Erithacus Software Ltd., Staines, UK) utilizing the Lineweaver Burk plot {1/v versus 1/[S]} and the Ki values were calculated using the Dixon plot {1/v versus [I]}.

For the compound `O=c1cc(CO)occ1O` [Kojic acid, kojic acid, reference compound], the Type of inhibition entry in series [1] is “Competitive”.
Consider `NC(=S)N/N=C/c1ccc2[nH]ncc2c1` [Compound 2, 2-((1H-indazol-5-yl)methylene)hydrazinecarbothioamide], for which the melting point (commonly the temperature, or range, at which the solid turns liquid) lay in the range of 258 to 262 °C. Moreover, the “fold more potent than kojic acid (by Ki)” value in series [1] (Ki of kojic acid versus Ki of the compound) is on record as 52 fold. Also, in series [1], the Type of inhibition result was “competitive inhibitor; also recorded: competitive inhibition”. Moreover, the IC50 – broadly, the point on the concentration scale where inhibition reaches its midpoint – in series [1] (o-diphenolase activity, L-DOPA substrate, 25° C., pH 6.8, read-out: IC50 (μM ± SEM)) amounted to 0.228 µM. In addition, the Ki (commonly a measure of affinity in units of concentration, obtained from inhibition or displacement) in series [1] (o-diphenolase activity, L-DOPA substrate, Dixon plot, 25° C., pH 6.8, read-out: Ki (μM ± SEM)) is 0.0843 µM.
